From patent publication US11732560B1, “Nitrate treatment for injectivity improvement” (SAUDI ARABIAN OIL COMPANY, priority 2022, dated 2023)
Read-outs that look alike come from different tables or passages of the source.

Tests used:
sulfide production = tested on: sulfide production
Procedure: (§1) A field experiment was conducted in an oil field water injection system to determine the effect of nitrate (NO3^-) for controlling sulfate reducing bacteria (SRB) in oilfield operations, and microbial influence corrosion (MIC) for surface pipelines.

NRSOB = tested on: NRSOB
Procedure: as §1

[1] = tested on: Nitrate Utilizing Bacterial (NUB); test: Field trial microbiological monitoring: planktonic NUB population; type: cell-based, nitrate utilizing bacteria
Procedure: as §1

[2] = tested on: sulfate reducing bacteria (SRB)
Procedure: The second injection rate, 23 mg/l, was maintained for three weeks.

## O=[N+]([O-])O [nitrate]
Sulfide production; nitrate 11 mg/L
  sulfide level: 6.7 mg/L
Sulfide production; nitrate 23 mg/l
  sulfide level: 8 mg/L
Sulfide production; nitrate ion 45 mg/L, 15.8-17.3 ppm detected beforehand
  sulfide concentration: 8.3 ppm
NRSOB; nitrate dose reduced, decreased from 10^6
  NRSOB numbers: 10^4 per ml
NRSOB; over treatment with nitrate at 45 mg/L, increased from 10^3
  NRSOB numbers: 10^6 /ml
[1]; initially detected, start of nitrate treatment
  NUB population: 104 NUB/ml
[1]; nitrate reduced to 23 mg/L and 11 mg/L, over 7 days and after 56 days
  planktonic NUB population: 106 mL⁻¹
[1]; over nitrate treatment with 45 mg/L
  NUB population: ~10^6 NUB/ml
[2]; increase observed later after 23 mg/l period, maintained
  SRB activities: 101 SRB/ml
[2]; nitrate 11 mg/l
  minimum SRB achieved: 10^1 bacteria/ml
[2]; nitrate 23 mg/l, at the end of three weeks
  SRB activities: below the detection limits
[2]; nitrate 45 mg/l, 10^2 SRB/ml before injection
  drop in SRB activities: 50%
